Tests used:
HH cells = assay: ADCC activity of KM8760 with Lenalidomide-treated hPBMC effector cells, 51Cr release; type: cell-based, human; details: hPBMC effector cells treated with 0.1, 1 or 10 μmol/L Lenalidomide for one, three or five days; effector:target 25:1; KM8760 0.01, 0.1, 1 μg/mL
Description: Mononuclear cells (hPBMC) were obtained from peripheral blood from healthy adults by density-gradient centrifugation using Ficoll-paque (manufactured by GE health care). The obtained hPBMC was suspended in RPMI1640 medium containing 10% of FBS and 1% of penicillin/streptomycin solution (manufactured by Nacalai Tesque) (hereinafter referred to as medium). Lenalidomide was added to the suspension to give a final concentration of […]. The obtained suspension was incubated at 37° C. for one, three or five days. Thereafter incubation, hPBMC was washed one time with the medium, and the washed cells were adjusted to give a concentration of about 5×10^6 cells/mL using the medium. The obtained cells were used as effector cells.
After 1×10^6 of HH cells suspended in about 100 μL and 20 μL of ^51Cr solution (NEZ030, manufactured by Perkin-Elmer) were mixed, the mixed solution was incubated at 37° C. for 2 to 4 hours so that HH cells were radiolabeled. […]
On a 96-well U-bottom plate, 50 μL of each of effector cells, target cells and antibody solution was mixed (effector cell:target cell=25:1, final concentration of antibody=0.01, 0.1, or 1 μg/mL) and incubated at 37° C. for 4 hours. […] Herein, CPM was measured using a liquid scintillation counter for microplate (TopCount, manufactured by Perkin-Elmer). […] The rate of cytotoxicity (Lysis %) was calculated using the following formula. […]

[1] = test system: HH cells grafted into SCID mice; assay: Antitumor effect of anti-CCR4 antibody and Lenalidomide in combination (2), HH cells grafted into SCID mice; type: in vivo, SCID mouse; details: KM8760 20 mg/kg iv Day 0, 7, 14, 21, Lenalidomide 1 mg/kg ip daily Day 0-13
Description: (§1) HH cells (human multiple myeloma cell line; ATCC No: CRL-2105) were suspended in Dulbecco's phosphate buffered saline without calcium chloride and magnesium chloride (PBS, manufactured by Invitrogen) at a density of 2×10^8 cells/mL, and 100 μL of the suspension was transplanted into the ventral skin of SCID mouse (obtained by Nippon Crea, male). Seven days after the cell transplantation, a diameter of a tumor was measured with calipers, and a tumor volume was calculated using the following formula. Tumor volume=short diameter×short diameter×long diameter×0.5 (Formula)
Individuals having the tumor volume within the range of 51 to 79 mm^3 were selected, and grouped such that the average of tumor volume was to be equal. Then, the following administration groups A to D were arranged. The day of grouping was defined as Day 0.
(§2) A. Negative control group: Administration of medium
B. Group administering KM8760 alone: 20 mg/kg was administered on Day 0, Day 7, Day 14 and Day 21.
(§3) C. Group administering Lenalidomide alone: 1 mg/kg was administered everyday on Day 0 to Day 13.
(§4) D. Group administering KM8760 and Lenalidomide in combination: the respective agent was administered on the same schedule and at the same dose as each group administering respective agent alone.
(§5) The experiment was conducted with groups each consisting of twelve mice. KM8760 was diluted with saline (manufactured by Otsuka Pharmaceutical), and the obtained solution was administered from the tail vein. Lenalidomide was suspended with saline containing 0.5% of methylcellulose and the diluent was intraperitoneally administered. The tumor volume was measured chronologically. The antitumor effect was evaluated by comparing the average values of values (V/V0) obtained by dividing the tumor volume on each day of measurement by the tumor volume on Day 0 in each group.
The result of a test for a significant difference (Steel-Dwass test) between each group administering the respective agent alone and combination administration group is shown in Table 3. In the table, na means not applicable. In addition, when p<0.05, the value is considered to show a significant difference and is shown with * in the table.
(§6) In the table, * means the case where the actual value of T/C is smaller than the theoretical value.

[2] = test system: HH cells grafted into SCID mice; assay: Antitumor effect of anti-CCR4 antibody and Lenalidomide in combination (1), HH cells grafted into SCID mice; type: in vivo, SCID mouse; details: KM8760 20 mg/kg iv Day 0, 7, 14, Lenalidomide 1 mg/kg ip daily Day 0-13
Description: as §1, with “cell;” for “cell line;”, “1×10^7” for “2×10^8”
Individuals having the tumor volume within the range of 41 to 93 mm^3 were selected, and grouped such that the average of tumor volume was to be equal. Then, the following administration groups A to D were arranged. The day of grouping was defined as Day 0.
as §2
B. Group administering KM8760 alone: 20 mg/kg was administered on Day 0, Day 7 and Day 14.
as §3, §4
as §5, with “eight” for “twelve”, “obtained solution” for “diluent”
The results of the test for significant differences (One-way ANOVA, Dunnett test) compared with the negative control group are shown in Table 1. In addition, when p<0.05, the value is considered to show a significant difference and is shown with * in the table.
as §6

Molecule | ADCC activity of KM8760 (cytotoxicity rate, Lysis %, FIG. 3) (HH cells) | T/C (V/V0 of group divided by V/V0 of negative control group) ([1]; Day 0) | T/C (V/V0 of group divided by V/V0 of negative control group) ([1]; Day 4) | T/C (V/V0 of group divided by V/V0 of negative control group) ([1]; Day 7) | T/C (V/V0 of group divided by V/V0 of negative control group) ([1]; Day 10) | T/C (V/V0 of group divided by V/V0 of negative control group) ([1]; Day 14) | T/C (V/V0 of group divided by V/V0 of negative control group) ([1]; Day 19) | T/C (V/V0 of group divided by V/V0 of negative control group) ([1]; Day 21) | T/C (V/V0 of group divided by V/V0 of negative control group) ([1]; Day 24) | T/C (V/V0 of group divided by V/V0 of negative control group) ([1]; Day 28) | T/C (V/V0 of group divided by V/V0 of negative control group) ([2]; Day 0) | T/C (V/V0 of group divided by V/V0 of negative control group) ([2]; Day 4) | T/C (V/V0 of group divided by V/V0 of negative control group) ([2]; Day 7) | T/C (V/V0 of group divided by V/V0 of negative control group) ([2]; Day 10) | T/C (V/V0 of group divided by V/V0 of negative control group) ([2]; Day 14) | T/C (V/V0 of group divided by V/V0 of negative control group) ([2]; Day 17) | T/C (V/V0 of group divided by V/V0 of negative control group) ([2]; Day 21)
Nc1cccc2c1CN(C1CCC(=O)NC1=O)C2=O (stereo not drawn) [Lenalidomide] | clearly enhanced | 1.00 | 1.05 | 0.92 | 0.93 | 0.75 | 0.90 | 0.88 | 0.95 | 0.95 | 1.000 | 1.041 | 0.918 | 0.948 | 0.875 | 0.750 | 0.766
KM8760: human CDR-grafted anti-CCR4 antibody lacking fucose modification, VH SEQ ID NO:11, VL SEQ ID NO:12 (antibody, V domains shown, afucosylated) VH: EVQLVESGGDLVQPGRSLRLSCAASGFIFSNYGMSWVRQAPGKGLEWVATISSASTYSYYPDSVKGRFTISRDNAKNSLYLQMNSLRVEDTALYYCGRHSDGNFAFGYWGQGTLVTVSS VL: DVLMTQSPLSLPVTPGEPASISCRSSRNIVHINGDTYLEWYLQKPGQSPQLLIYKVSNRFSGVPDRFSGSGSGTDFTLKISRVEAEDVGVYYCFQGSLLPWTFGQGTKVEIK |  | 1.00 | 0.89 | 0.71 | 0.62 | 0.54 | 0.54 | 0.54 | 0.55 | 0.53 | 1.000 | 0.910 | 0.764 | 0.750 | 0.691 | 0.652 | 0.639

Source: patent US9387248B2, “Pharmaceutical composition comprising antibody composition which specifically binds to CCR4” (KYOWA HAKKO KIRIN CO., LTD, priority 2009, dated 2016)
